Patent US5334595A, “Pyrazoloquinolones as anticancer agents” (priority 1992, dated 1994)

How the values were obtained:
Design in all cases: species or system mice
[1] = In vivo antitumor assay, Mam16C/RP (sc); conditions: mouse, in vivo, drug iv
From the text: (§1) Mice: Inbred: C3H/He and NCR-nu; and Hybrids: B6D2F1 (C57BL/6 females×DBA/2 males, CD2F1 (Balb/c females×DBS/2 males) and B6C3fl (C57BL/6×C3H) were bred at Wayne State University from strains obtained from the Frederick Cancer Research Facility, Frederick, Maryland or purchased from commercial suppliers.
(§2) Tumors: Murine Tumor: P388 and an adriamycin-resistant (ADR) subline P388/ADR leukemia and the following transplantable solid tumors of mice were used for in vivo testing: B16 melanoma (B16), pancreatic ductal adenocarcinoma No. 03 (Pane 03), colon adenocarcinoma No. 38 (colo 38), lung carcinoma No. 12 (LC 12), mammary ductal adenocarcinoma No. 16/C (Mam16C) and an adriamycin-resistant subline Mam16C/ADR. Human tumor: A single human tumor, mammary carcinoma MX-1 was used for in vivo testing. All tumors are in the Developmental Therapeutics Program frozen tumor respository, maintained by the Biological Testing Branch, Frederick Maryland. Each has a detailed description, code identification number, and list of references at the National Tumor Repository. Murine tumors were maintained in the mouse strain of origin and were transplanted in the appropriate F1 hydrid (or the strain of origin) for therapy trials. Human mammary carcinoma MX-1 (MX1) was maintained as a subcutaneous implant in either athymic Swiss (Cr: NIH(S)-nu) or athymic random bred (NCR-nu) mice and transplanted in NCR-nu for therapy trials.
(§3) Chemotherapy: For pancreatic ductal adenocarcinoma No. 3, colon adenocarcinoma No. 38 (colo 38), lung carcinoma No. 12 LC 12) and both adriamycin-sensitive (RP) and-resistant (ADR) mammary ductal adenocarcinoma No. 16 (Mam16) tumors, bilateral tumor implants were used to help ensure a more uniform tumor burden per mouse (thus reducing the requirement for greater numbers of mice per group). The animals necessary to begin an experiment were pooled, implanted bilaterally s.c. on day zero with 30-60 mg tumor fragments using a 12-gauge trocar, and again pooled before randomization to the various treatment and control groups. Chemotherapy was started within three days after tumor implantation while the number of cells per mouse was relatively small (1×10^7 -1×10^8 cells).
(§4) Quantitative end points used to assess antitumor activity included % Increased Life Span (% ILS), Tumor Cell Kill (Log10 kill), and Tumor Growth Inhibition (T/C). Long Term Survivors (45 or 60 day) were excluded from calculations of %ILS and Tumor Cell Kill.
(§5) Tumors were measured with a caliper once or twice weekly (as needed) until either tumors exceeded 1600 mg or cure was assured. Tumor weights were estimated from two-dimensional measurements: Tumor Weight (mg)=(a×b^2) / 2, where a and b are the tumor length and width (ram) respectively. Measurements were carried out simultaneously in both treatment and control groups. When the control group tumors reached approximately 750-1500 mg in size (median of group), the median tumor weight of each group was determined (including zeros). The T/C value in percent is an indication of antitumor effectiveness. The % T/C was calculated from the following formula for solid murine tumor models: [formula] where T and C are median tumor weights of the treatment and control groups, respectively. […] A T/C value <10% is indicative of a high degree of antitumor activity and is the level used by National Cancer Institute to justify further development if other requirements are met (termed DN-2 level activity). By convention the T/C value for the mammary carcinoma MX-1 models is calculated by the parameter of change in tumor weight .

[2] = system: adriamycin-sensitive (RP) mammary ductal adenocarcinoma No. 16; test: In vivo antitumor assay, Mam16C/RP (sc); conditions: drug iv
From the text: as §1, §2, §3, §4, §5

[3] = system: pancreatic ductal adenocarcinoma No. 03; test: In vivo antitumor assay, Panc03(sc); conditions: for Log Kill: Panc03(sc), drug iv
From the text: as §1, §2, §3, §4
(§6) The log10 cell kill was calculated from the following formula: [formula] where T-C is the tumor difference in the median day of death between the treated (T) and the control (C) groups and Td is the tumor doubling time (in days), the latter estimated from the best fit straight line from a log-linear growth plot of the control-group tumors in exponential growth. The conversion of the T-C values to log10 cell kill is possible because the Td for tumors regrowing post-treatment approximated the Td values of the tumors in untreated control mice.
Tumors were measured with a caliper once or twice weekly (as needed) until either tumors exceeded 1600 mg or cure was assured. Tumor weights were estimated from two-dimensional measurements: Tumor Weight (mg)=(a×b^2) / 2, where a and b are the tumor length and width (ram) respectively. Measurements were carried out simultaneously in both treatment and control groups. When the control group tumors reached approximately 750-1500 mg in size (median of group), the median tumor weight of each group was determined (including zeros). The T/C value in percent is an indication of antitumor effectiveness. The % T/C was calculated from the following formula for solid murine tumor models: [formula] where T and C are median tumor weights of the treatment and control groups, respectively. A T/C equal to or less than 42% is considered significant antitumor activity. […]

[4] = In vivo antitumor assay, P388/ADR(iv); conditions: mouse, in vivo, iv, drug iv
From the text: as §1, §2
(§7) For P388 and P388/ADR leukemia studies the tumor cells were implanted either interperitoneally (IP) or intravenously (IV) on day zero and treatment was started on day one. For B16 melanoma (B16) studies, the tumor cells were implanted IP on day zero and treatment was started on day one. Titered controls were also included to facilitate the calculation of tumor cell kill. For mammary carcinoma MX-1 studies, tumors were implanted with 1) subcutaneously (sc) (14-mg fragment of sc donor tumor) in the axillary region or 2) under the subrenal capsule (SRC) (10×10×10 ocular micrometer unit fragment of sc donor tumor). Treatment started on the day after subrenal capsule tumor implant or when the subcutaneous tumor implant had reached 100-700 mg.
as §4
(§8) Endpoints were calculated as follows: [formula] where Dt is the median day of death for treated and Dc is the median day of death for control groups. A % ILS ≥20 or ≥25 for P388 and B16 intraperitoneal models, respectively, is indicative of a significant degree of antitumor activity. A % ILS ≥75 or ≥50 for P388 and B16 intraperitoneal models, , respectively, is indicative of a high degree of antitumor activity and is the level used by National Cancer Institute to justify further development if other requirements are met (termed DN-2 level activity). Minimum quantitative activity limits for additional P388 models (e.g. P388/ADR and P388, IV) have not been defined. However, the activity limits specified for the intraperitoneal models may be applied as in the majority of instances the intraperitoneal models are found to be signficantly less challenging.
as §6

[5] = system: adriamycin-resistant (ADR) subline P388/ADR leukemia; test: In vivo antitumor assay, P388/ADR(iv); conditions: drug iv
From the text: as §1, §2, §7, §4, §8, §6

P388 leukemia = test: In vivo antitumor assay, P388(iv); conditions: drug iv, qd 1-3, exp 1155A
From the text: as §1
as §2, with “Human mammary carcinoma MX-1 (MX1) was maintained as a subcutaneous implant in either athymic Swiss (Cr: NIH(S)-nu) or athymic random bred (NCR-nu) mice and transplanted in NCR-nu for therapy trials.” left out
Quantitative end points used to assess antitumor activity included % Increased Life Span (% ILS), Tumor Cell Kill (Log10 kill), and Tumor Growth Inhibition (T/C). […]
Endpoints were calculated as follows: [formula] where Dt is the median day of death for treated and Dc is the median day of death for control groups. […] Minimum quantitative activity limits for additional P388 models (e.g. P388/ADR and P388, IV) have not been defined. […]
as §6, with “The conversion of the T-C values to log10 cell kill is possible because the Td for tumors regrowing post-treatment approximated the Td values of the tumors in untreated control mice.” left out

[6] = Mam16C/RP (sc), bid 1-5, exp 924

SMILES	MTD ([1]; Mam16C/RP, bid 1-8, exp 924) [mg/kg]	Log Kill ([2]; Mam16C/RP, bid 1-8, exp 924)	T/C % ([2]; Mam16C/RP, bid 1-8, exp 924) [%]	Log Kill ([3]; qd 3-5, exp 895A)	MTD ([3]; mouse, in vivo, iv) [Mg/Kg]	MTD ([4]; qd 1-3, exp 1149B) [mg/kg]	MTD ([4]; qd 1-5, exp 1073B) [mg/kg]	ILS % ([5]; qd 1-3, exp 1149B) [%]	Log Kill ([5]; qd 1-3, exp 1149B)	ILS % ([5]; qd 1-5, exp 1073B) [%]	Log Kill ([5]; qd 1-5, exp 1073B)	MTD [1, 6] [mg/kg]	Log Kill [2, 6]	T/C % [2, 6] [%]	ILS % (P388 leukemia) [%]	Log Kill (P388 leukemia)	Log Kill ([3]; qd 3,6,9, exp 1146)	Log Kill ([3]; qd 3, exp 895A)
Cc1cc(-c2c(F)cc3c4nn(CCCN(C)C)c(=O)c-4cn(C4CC4)c3c2F)cc(C)n1 [Example 14]	101	1.5	8	0.60	64													
Cc1cc(-c2c(F)cc3c4nn(CCN(C)C)c(=O)c-4cn(C4CC4)c3c2F)cc(C)n1.O=C(O)/C=C/C(=O)O [Example 1, 5-Cyclopropyl-6,8-difluoro-2,5-dihydro-2-[2-(dimethylamino)-ethyl]-7-(2,6-dimethyl-4-pyridinyl)-3H-pyrazolo[4,3-c]quinolin-3-one (E)-2-butendioate (1:1)]						52	48	27	1.3	14.3	0.93	20	1.2	13	82	5.4	0.66	0.66
